# Results as given in US9000025B2, “Autotaxin inhibitors and uses thereof” (Amira Pharmaceuticals, Inc., priority 2010, dated 2015).
# Target: T1, autotaxin (ATX) (Homo sapiens, UniProt Q13822)
# T1 construct: conditioned medium from the human melanoma cell line, MDA-MB-4355, which endogenously expresses autotaxin; host or cells: MDA-MB-435S human melanoma cells; serum-free conditioned medium, concentrated 20-fold
# Experiment: Native Autotaxin Choline Release Assay
# Type: biochemical
# Conditions: autotaxin in conditioned medium from human melanoma cell line; choline released from LPC; read-out: MDA-MB-435S Assay IC50
# How it was run: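 Native ATX from conditioned serum-free, phenol-red-free DMEM of confluent cells cultured 48 h; LPC as substrate. Released choline detected with choline oxidase/peroxidase/4-aminoantipyrine colour mix in 50 mM Tris pH 8, 10 min at 37 °C, absorbance 555 nm; choline quantified against standard curve, equated to LPA formed.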
row,SMILES,IC50
1,"CCn1cc(-n2c(C)c(Sc3cccc(C(=O)NS(C)(=O)=O)c3)c3ccc(Cl)c(F)c32)cn1 [Compound 3-29, N-{3-[6-Chloro-1-(1-ethyl-1H-pyrazol-4-yl)-7-fluoro-2-methyl-1H-indol-3-ylsulfanyl]-benzoyl}-methanesulfonamide]",< 0.3 µM
2,"CCn1cc(-n2c(C)c(Sc3ccc(CC(=O)O)cc3)c3ccc(Cl)cc32)cn1 [Compound 3-30, {4-[6-Chloro-1-(1-ethyl-1H-pyrazol-4-yl)-2-methyl-1H-indol-3-ylsulfanyl]-phenyl}-acetic acid]",< 0.3 µM
3,"CCn1cc(-n2c(C)c(Sc3cccc(C(=O)O)c3)c3ccc(C#N)cc32)cn1 [Compound 3-31, 3-[6-Cyano-1-(1-ethyl-1H-pyrazol-4-yl)-2-methyl-1H-indol-3-ylsulfanyl]-benzoic acid]",< 0.3 µM
4,"Cc1ccc(-n2cc(-n3c(C)c(Sc4cccc(C(=O)O)c4)c4ccc(Cl)c(F)c43)cn2)cc1 [Compound 3-32, 3-[6-Chloro-7-fluoro-2-methyl-1-(1-p-tolyl-1H-pyrazol-4-yl)-1H-indol-3-ylsulfanyl]-benzoic acid]",< 0.3 µM
5,"Cc1c(Sc2cccc(C(=O)O)c2)c2ccc(Cl)c(F)c2n1-c1cnn(-c2cccc(Cl)c2)c1 [Compound 3-33, 3-{6-Chloro-1-[1-(3-chloro-phenyl)-1H-pyrazol-4-yl]-7-fluoro-2-methyl-1H-indol-3-ylsulfanyl}-benzoic acid]",< 0.3 µM
6,"Cc1c(Sc2cccc(C(=O)O)c2)c2ccc(Cl)c(F)c2n1-c1cnn(CC2CC2)c1 [Compound 3-34, 3-[6-Chloro-1-(1-cyclopropylmethyl-1H-pyrazol-4-yl)-7-fluoro-2-methyl-1H-indol-3-ylsulfanyl]-benzoic acid]",< 0.3 µM
7,"Cc1c(Sc2cccc(C(=O)O)c2)c2ccc(Cl)c(F)c2n1-c1cnn(C2CCCC2)c1 [Compound 3-35, 3-[6-Chloro-1-(1-cyclopentyl-1H-pyrazol-4-yl)-7-fluoro-2-methyl-1H-indol-3-ylsulfanyl]-benzoic acid]",< 0.3 µM
8,"Cc1c(Sc2cccc(C(=O)O)c2)c2ccc(Cl)c(F)c2n1-c1cnn(C2CCC2)c1 [Compound 3-36, 3-[6-Chloro-1-(1-cyclobutyl-1H-pyrazol-4-yl)-7-fluoro-2-methyl-1H-indol-3-ylsulfanyl]-benzoic acid]",< 0.3 µM
9,"CCCn1cc(-n2c(C)c(Sc3cccc(CC(=O)O)c3)c3ccc(Cl)c(F)c32)cn1 [Compound 3-37, {3-[6-chloro-7-fluoro-2-methyl-1-(1-propyl-1H-pyrazol-4-yl)-1H-indol-3-ylsulfanyl]-phenyl}-acetic acid]",< 0.3 µM
10,"CCn1cc(-n2c(C)c(Sc3cccc(C(=O)NS(=O)(=O)c4ccccc4)c3)c3ccc(Cl)c(F)c32)cn1 [Compound 3-42, N-{3-[6-Chloro-1-(1-ethyl-1H-pyrazol-4-yl)-7-fluoro-2-methyl-1H-indol-3-ylsulfanyl]-benzoyl}-benzenesulfonamide]",< 0.3 µM
11,"Cc1c(Sc2cccc(C(=O)O)c2)c2ccc(Cl)c(F)c2n1-c1cnn(C2CC2)c1 [Compound 3-47, 3-[6-Chloro-1-(1-cyclopropyl-1H-pyrazol-4-yl)-7-fluoro-2-methyl-1H-indol-3-ylsulfanyl]-benzoic acid]",< 0.3 µM
12,"COc1ccc(Cn2cc(-n3c(C)c(Sc4cccc(C(=O)O)c4)c4ccc(Cl)c(F)c43)cn2)cc1 [Compound 3-48, 3-{6-Chloro-7-fluoro-1-[1-(4-methoxy-benzyl)-1H-pyrazol-4-yl]-2-methyl-1H-indol-3-ylsulfanyl}-benzoic acid]",< 0.3 µM
13,"Cc1c(Sc2cccc(C(=O)O)c2)c2ccc(Cl)c(F)c2n1-c1cn[nH]c1 [Compound 3-49, 3-[6-Chloro-7-fluoro-2-methyl-1-(1H-pyrazol-4-yl)-1H-indol-3-ylsulfanyl]-benzoic acid]",< 0.3 µM
14,"Cc1c(Sc2cccc(C(=O)O)c2)c2ccc(Cl)c(F)c2n1-c1cnn(CCO)c1 [Compound 3-50, 3-{6-Chloro-7-fluoro-1-[1-(2-hydroxy-ethyl)-1H-pyrazol-4-yl]-2-methyl-1H-indol-3-ylsulfanyl}-benzoic acid]",< 0.3 µM
15,"CCn1cc(-n2c(C)c(Sc3cccc(C(=O)NS(=O)(=O)C4CC4)c3)c3ccc(Cl)c(F)c32)cn1 [Compound 3-51, cyclopropanesulfonic acid 3-[6-chloro-1-(1-ethyl-1H-pyrazol-4-yl)-7-fluoro-2-methyl-1H-indol-3-ylsulfanyl]-benzoylamide]",< 0.3 µM
16,"CCn1cc(-n2c(C)c(Sc3cccc(C(=O)O)c3)c3ccc(Cl)c(Cl)c32)cn1 [Compound 3-52, 3-[6,7-Dichloro-1-(1-ethyl-1H-pyrazol-4-yl)-2-methyl-1H-indol-3-ylsulfanyl]-benzoic acid]",< 0.3 µM
17,"CCCn1cc(-n2c(C)c(Sc3cccc(CC(=O)NS(C)(=O)=O)c3)c3ccc(Cl)cc32)cn1 [Compound 3-53, N-(2-{3-[6-Chloro-2-methyl-1-(1-propyl-1H-pyrazol-4-yl)-1H-indol-3-ylsulfanyl]-phenyl}-acetyl)-methanesulfonamide]",< 0.3 µM

row,SMILES,IC50
1,"CCCn1cc(-n2c(C)c(Sc3cccc(CC(=O)NS(=O)(=O)C4CC4)c3)c3ccc(Cl)cc32)cn1 [Compound 3-54, cyclopropanesulfonic acid (2-{3-[6-chloro-2-methyl-1-(1-propyl-1H-pyrazol-4-yl)-1H-indol-3-ylsulfanyl]-phenyl}-acetyl)-amide]",< 0.3 µM
2,"CCCn1cc(-n2c(C)c(Sc3cccc(CC(=O)NS(=O)(=O)c4ccccc4)c3)c3ccc(Cl)cc32)cn1 [Compound 3-55, N-(2-{3-[6-Chloro-2-methyl-1-(1-propyl-1H-pyrazol-4-yl)-1H-indol-3-ylsulfanyl]-phenyl}-acetyl)-benzenesulfonamide]",< 0.3 µM
3,"Cc1c(Sc2cccc(C(=O)O)c2)c2ccc(Cl)c(F)c2n1-c1cnn(C(C)C)c1 [Compound 3-56, 3-[6-Chloro-7-fluoro-1-(1-isopropyl-1H-pyrazol-4-yl)-2-methyl-1H-indol-3-ylsulfanyl]-benzoic acid]",< 0.3 µM
4,"Cc1c(Sc2cccc(C(=O)O)c2)c2ccc(Cl)c(F)c2n1-c1cnn(C)c1 [Compound 3-57, 3-[6-Chloro-7-fluoro-2-methyl-1-(1-methyl-1H-pyrazol-4-yl)-1H-indol-3-ylsulfanyl]-benzoic acid]",< 0.3 µM
5,"CCn1ccc(-n2c(C)c(Sc3cccc(C(=O)O)c3)c3ccc(Cl)c(F)c32)n1 [Compound 3-58, 3-[6-Chloro-1-(1-ethyl-1H-pyrazol-3-yl)-7-fluoro-2-methyl-1H-indol-3-ylsulfanyl]-benzoic acid]",0.3 to 1 µM
6,"Cc1c(Sc2cccc(C(=O)O)c2)c2ccc(Cl)c(F)c2n1-c1cnn(C(C)(C)C)c1 [Compound 3-60, 3-[1-(1-tert-Butyl-1H-pyrazol-4-yl)-6-chloro-7-fluoro-2-methyl-1H-indol-3-ylsulfanyl]-benzoic acid]",< 0.3 µM
7,"Cc1cc(-n2c(C)c(Sc3cccc(C(=O)O)c3)c3ccc(Cl)c(F)c32)cs1 [Compound 3-61, 3-[6-Chloro-7-fluoro-2-methyl-1-(5-methyl-thiophen-3-yl)-1H-indol-3-ylsulfanyl]-benzoic acid]",< 0.3 µM
8,"Cc1ccc(-n2c(C)c(Sc3cccc(C(=O)O)c3)c3ccc(Cl)c(F)c32)s1 [Compound 3-62, 3-[6-Chloro-7-fluoro-2-methyl-1-(5-methyl-thiophen-2-yl)-1H-indol-3-ylsulfanyl]-benzoic acid]",0.3 to 1 µM
9,"CCn1cc(-n2c(C)c(Sc3cc(F)cc(C(=O)O)c3)c3ccc(Cl)c(F)c32)cn1 [Compound 4-2, 3-[6-Chloro-1-(1-ethyl-1H-pyrazol-4-yl)-7-fluoro-2-methyl-1H-indol-3-ylsulfanyl]-5-fluoro-benzoic acid]",< 0.3 µM
10,"CCn1cc(-n2c(C)c(Sc3cccc(C(=O)O)c3F)c3ccc(Cl)c(F)c32)cn1 [Compound 4-3, 3-[6-Chloro-1-(1-ethyl-1H-pyrazol-4-yl)-7-fluoro-2-methyl-1H-indol-3-ylsulfanyl]-2-fluoro-benzoic acid]",< 0.3 µM
11,"CCCn1cc(-n2c(C)c(Sc3cccc(C(=O)O)c3F)c3ccc(Cl)c(F)c32)cn1 [Compound 4-4, 3-[6-Chloro-7-fluoro-2-methyl-1-(1-propyl-1H-pyrazol-4-yl)-1H-indol-3-ylsulfanyl]-2-fluoro-benzoic acid]",< 0.3 µM
12,"CCCn1cc(-n2c(C)c(Sc3cc(F)cc(C(=O)O)c3)c3ccc(Cl)c(F)c32)cn1 [Compound 4-5, 3-[6-Chloro-7-fluoro-2-methyl-1-(1-propyl-1H-pyrazol-4-yl)-1H-indol-3-ylsulfanyl]-5-fluoro-benzoic acid]",< 0.3 µM
13,"Cc1c(Sc2cc(F)cc(C(=O)O)c2)c2ccc(Cl)c(F)c2n1-c1cnn(C(C)C)c1 [Compound 4-6, 3-[6-Chloro-7-fluoro-1-(1-isopropyl-1H-pyrazol-4-yl)-2-methyl-1H-indol-3-ylsulfanyl]-5-fluoro-benzoic acid]",< 0.3 µM
14,"CCn1cc(-n2c(C)c(Sc3cccc(C(=O)NS(=O)(=O)c4ccccc4)c3F)c3ccc(Cl)c(F)c32)cn1 [Compound 4-7, N-{3-[6-Chloro-1-(1-ethyl-1H-pyrazol-4-yl)-7-fluoro-2-methyl-1H-indol-3-ylsulfanyl]-2-fluoro-benzoyl}-benzenesulfonamide]",< 0.3 µM
15,"CCCn1cc(-n2c(C)c(Sc3cccc(C(=O)NS(=O)(=O)c4ccccc4)c3F)c3ccc(Cl)c(F)c32)cn1 [Compound 4-8, N-{3-[6-Chloro-1-(1-propyl-1H-pyrazol-4-yl)-7-fluoro-2-methyl-1H-indol-3-ylsulfanyl]-2-fluoro-benzoyl}-benzenesulfonamide]",< 0.3 µM
16,"CCn1cc(-n2c(C)c(Sc3ccc(C)c(C(=O)O)c3)c3ccc(Cl)c(F)c32)cn1 [Compound 4-9, 5-[6-Chloro-1-(1-ethyl-1H-pyrazol-4-yl)-7-fluoro-2-methyl-1H-indol-3-ylsulfanyl]-2-methyl-benzoic acid]",< 0.3 µM
